Measurements as given in patent US20200010910A1, “Cytotoxic Chemotherapy-Based Predictive Assays for Acute Myeloid Leukemia” (The Regents of The University of California, priority 2017, published 2020).

Tests used:
[1] = tested on: H727; assay: MTT assay IC50; assay type: cell-based, human
Method: (§1) Six non-small cell lung cancer (NSCLC) cell lines were treated in culture with [^14C]carboplatin. Carboplatin-DNA monoadduct levels over time were determined by measuring ^14C content in genomic DNA with accelerator mass spectrometry (AMS). Cellular sensitivity to carboplatin and cisplatin was analyzed by the MTT assay (Henderson et al., International Journal of Cancer 2011).
(§2) Human NSCLC cell lines H23, H460, H727, HCC827, H1975, and A549 were purchased from ATCC and were cultured with the recommended medium. The MTT assay was performed as previously reported to determine the drug concentration required to inhibit cell growth by 50% (IC50) of cisplatin and carboplatin. [^14C]Carboplatin (at 53 mCi/mmol) was mixed with unlabeled carboplatin to achieve the specific activities required for microdoses and therapeutic doses. Table 1 lists the six NSCLC cell lines and summarizes their IC50 characteristics, induced carboplatin-DNA monoadducts when treated with [^14C]carboplatin, and p and r^2 values for correlation analysis to the IC50 concentrations.

[2] = tested on: H23; assay: MTT assay IC50; assay type: cell-based, human
Method: as §1, §2

[3] = tested on: HCC827; assay: MTT assay IC50; assay type: cell-based, human
Method: as §1, §2

[4] = tested on: H1975; assay: MTT assay IC50; assay type: cell-based, human
Method: as §1, §2

[5] = tested on: H460; assay: MTT assay IC50; assay type: cell-based, human
Method: as §1, §2

[6] = tested on: 5637R; assay: MTT assay IC50, oxaliplatin-resistant bladder cancer sub-line; assay type: cell-based, human; conditions: 5637R, 72 hours
Method: Drug-DNA adduct formation and repair was measured by accelerator mass spectrometry.
To confirm that 5637 was the original ATCC cell line, and that 5637R originated from the parental 5637 cell line, both cultures were sent to the ATCC Cell Line Authentication Service for cell verification per the ATCC protocol. More specifically, fifteen short tandem repeat (STR) loci plus the gender determining locus, amelogenin, were amplified using the commercially available PowerPlex® 16HS Kit from Promega.
These two cell lines were also cultured with a range of concentrations of cisplatin, carboplatin, gemcitabine, doxorubicin, methotrexate and vinblastine for 72 hours to determine IC50 for these other drugs (FIG. 16C). These drugs were chosen because of their frequent use in the treatment of bladder cancer.

[7] = tested on: PDX Model BL0645; assay: PDX tumor growth under chemotherapy; assay type: in vivo, NSG mice; conditions: cisplatin 2 mg/kg IV Q7Dx3, gemcitabine 150 mg/kg IP Q7Dx4
Method: (§3) Female NSG mice (5-8 weeks of age, body weight: 20 to 25 g) were obtained from Jackson Laboratories (CA, USA). […] To establish multiple PDXs to allow efficacy studies with multiple drugs, PDXs from passage 2-4 were minced into 1 mm^3 sections and injected subcutaneously into multiple mice. […] G/C combination chemotherapy consisted of the simultaneous administration of both drugs using the schema described above. Tumor growth was assessed by measuring palpable tumors with a caliper and calculating tumor volume. […] DNA was isolated using a modified Wizard procedure (Promega), quantitated by spectrophotometry, and then stored frozen at −20° C. until AMS analysis. […] Primary tumor tissue from four bladder cancer patients were implanted in NSG mice to create the PDX models described in Table 5. […] Of the four distinct tumors tested in the PDX model, three were resistance to cisplatin (BL0269, BL0293, BL0645) and two were resistance to gemcitabine (BL0269, BL0645) as single agent therapies.

[8] = tested on: PDX Model BL0293; assay: PDX tumor growth under chemotherapy; assay type: in vivo, NSG mice; conditions: cisplatin 2 mg/kg IV Q7Dx3, gemcitabine 150 mg/kg IP Q7Dx4
Method: as §3

[9] = tested on: PDX Model BL0269; assay: PDX tumor growth under chemotherapy; assay type: in vivo, NSG mice; conditions: cisplatin 2 mg/kg IV Q7Dx3, gemcitabine 150 mg/kg IP Q7Dx4
Method: as §3

[10] = tested on: PDX Model BL0440; assay: PDX tumor growth under chemotherapy; assay type: in vivo, NSG mice; conditions: cisplatin 2 mg/kg IV Q7Dx3, gemcitabine 150 mg/kg IP Q7Dx4
Method: as §3

[11] = tested on: HT1197; assay: MTT assay IC50, bladder cancer cell line; assay type: cell-based
Text: (§4) If these diadducts are the predominant DNA lesion responsible for cell death, then the IC50 of the two drugs should be linearly related. Thus, we measured the IC50 of the six NSCLC cell lines from Example 2 to both cisplatin and carboplatin to determine if the sensitivity of these six NSCLC cell lines to the two drugs are correlated. We observed a statistically significant linear correlation of the cytotoxicity of these two drugs in the 6 cell lines used in this study (R^2=0.72, p=0.033, FIG. 9A) and also to six additional ATCC bladder cancer cell lines. (R^2=0.72, p=0.033), FIG. 9B).

[12] = tested on: TCCSUP; assay: MTT assay IC50, bladder cancer cell line; assay type: cell-based
Text: as §4

[13] = tested on: RT4; assay: MTT assay IC50, bladder cancer cell line; assay type: cell-based
Text: as §4

[14] = tested on: T24; assay: MTT assay IC50, bladder cancer cell line; assay type: cell-based
Text: as §4

[15] = tested on: J82; assay: MTT assay IC50, bladder cancer cell line; assay type: cell-based
Text: as §4

[16] = tested on: PDX Model BL0645; assay: drug-DNA adducts in PDX tumor by AMS; assay type: in vivo, NSG mice; conditions: 24 h
Text: (§5) Female NSG mice (5-8 weeks of age, body weight: 20 to 25 g) were obtained from Jackson Laboratories (CA, USA). All animals were kept under pathogen-free conditions and were allowed to acclimatize for at least 4 days prior to any experiments. PDX models bearing the indicated patient derived xenografts were created by subcutaneous injection at the flank of 1 mm^3 tumor tissue. To establish multiple PDXs to allow efficacy studies with multiple drugs, PDXs from passage 2-4 were minced into 1 mm^3 sections and injected subcutaneously into multiple mice. At least 3 mice were used for each treatment group. Tumors were allowed to grow to at about 100 mm^3 before being assessed for drug sensitivity or the induction of DNA adducts by the administration of a microdose or a therapeutic dose of labeled drug. To assess tumor response to chemotherapy, cisplatin was administered at 2 mg/kg IV every 7 days for a total of 3 cycles, or gemcitabine was administered at 150 mg/kg IP every 7 days for a total of 4 cycles. G/C combination chemotherapy consisted of the simultaneous administration of both drugs using the schema described above. Tumor growth was assessed by measuring palpable tumors with a caliper and calculating tumor volume. Drug-DNA adduct frequencies were measured in tumor tissue collected 24 hours after intravenous injection of labeled drug and stored at −80° C. until DNA isolation. DNA was isolated using a modified Wizard procedure (Promega), quantitated by spectrophotometry, and then stored frozen at −20° C. until AMS analysis. Ten micrograms of DNA per sample was converted to graphite and measured by AMS for 14C quantification as previously described.
(§6) NSG mice bearing the indicated PDX tumors were injected with a microdose of ^14C-labeled carboplatin (FIG. 22A) or ^14C-labeled gemcitabine (FIG. 22B). The microdose of ^14C-labeled carboplatin was 0.375 mg/kg carboplatin, 50,000 dpm/g. The microdose of ^14C-labeled gemcitabine was 0.092 mg/kg gemcitabine, 1000 dpm/g. The doses of each drug administered to the mice were chosen to target 1 μM in plasma concentration of carboplatin and 0.3 μM in plasma concentration of gemcitabine. These plasma concentrations represent 1% of the approximate peak plasma concentration during human chemotherapy. Animals were sacrificed after 24 h and drug-DNA adduct frequency was determined from collected tumor tissue by AMS measurements of ^14C in tumor DNA. Carboplatin DNA-adduct levels correlate with PDX model sensitivity to cisplatin at 24 h after microdosing (FIG. 22A). Gemcitabine DNA-adduct levels correlate with PDX model sensitivity to gemcitabine at 24 h after microdosing (FIG. 22B). […] There is no significant difference in carboplatin-DNA monoadduct levels between the three resistant PDX models. […] We conclude that microdose induced carboplatin-DNA monoadducts predicts sensitivity to cisplatin chemotherapy, and microdose induced gemcitabine incorporation predicts sensitivity to gemcitabine chemotherapy.
(§7) In this example we test whether gemcitabine/carboplatin (G/Carbo) combination therapy has an effect on the formation of drug-DNA adducts in this synergistic tumor model. In FIG. 23A, NGS mice bearing BL0645 xenographs were administered via tail vein injection a therapeutic dose of [^14C]carboplatin alone or a therapeutic dose of [^14C]carboplatin in combination with a therapeutic dose of gemcitabine. Carboplatin-DNA monoadducts were measured in tumor tissue 24 h after dosing. A therapeutic dose of the combination [^14C]carboplatin plus unlabeled gemcitabine leads to a significant increase in carboplatin-DNA monoadduct level (94.84±16.02 versus 209.6±64.66 adducts per 10^8 nucleotides, p=0.032) compared to treatment with carboplatin alone. In FIG. 23B, the same experiment was conducted in which the mice received a therapeutic dose of [^14C]gemcitabine alone or a therapeutic dose of [^14C]gemcitabine in combination with a therapeutic dose of unlabeled carboplatin. […]

[17] = tested on: PDX Model BL0269; assay: drug-DNA adducts in PDX tumor by AMS; assay type: in vivo, NSG mice
Text: as §5, §6, §7

[18] = tested on: PDX Model BL0293; assay: drug-DNA adducts in PDX tumor by AMS; assay type: in vivo, NSG mice; conditions: microdose 0.092 mg/kg gemcitabine, 24 h
Text: as §5
(§8) NSG mice bearing the indicated PDX tumors were injected with a microdose of ^14C-labeled carboplatin (FIG. 22A) or ^14C-labeled gemcitabine (FIG. 22B). The microdose of ^14C-labeled carboplatin was 0.375 mg/kg carboplatin, 50,000 dpm/g. The microdose of ^14C-labeled gemcitabine was 0.092 mg/kg gemcitabine, 1000 dpm/g. The doses of each drug administered to the mice were chosen to target 1 μM in plasma concentration of carboplatin and 0.3 μM in plasma concentration of gemcitabine. These plasma concentrations represent 1% of the approximate peak plasma concentration during human chemotherapy. Animals were sacrificed after 24 h and drug-DNA adduct frequency was determined from collected tumor tissue by AMS measurements of ^14C in tumor DNA. Carboplatin DNA-adduct levels correlate with PDX model sensitivity to cisplatin at 24 h after microdosing (FIG. 22A). Gemcitabine DNA-adduct levels correlate with PDX model sensitivity to gemcitabine at 24 h after microdosing (FIG. 22B). […] There is no significant difference in carboplatin-DNA monoadduct levels between the three resistant PDX models. […]

[19] = tested on: PDX Model BL0440; assay: drug-DNA adducts in PDX tumor by AMS; assay type: in vivo, NSG mice; conditions: microdose 0.092 mg/kg gemcitabine, 24 h
Text: as §5, §8

[20] = IV dose of 1000 mg/m^2 over 30 minutes; cited from earlier work
[21] = tested on: 5637 and 5637R cell lines; assay: gemcitabine incorporation into DNA by AMS; assay type: cell-based, human
Method: The two cell lines were cultured as described above in Example 11. [^14C]Gemcitabine (FIG. 19) was labeled at position 2 (on the aromatic nucleobase) with a specific activity of 58.8 mCi/mmol (purchased from Moravek Biochemical). Unlabeled gemcitabine (USP Pharmaceutical Grade) was mixed with the labeled gemcitabine to achieve the correct specific activity for this experiment. […] This microdose is approximately 0.1% of a therapeutically relevant concentration. Cells were sampled for DNA extraction and AMS analysis of ^14C in DNA over 24 hours.

For N.N.[Cl][Pt][Cl] [cisplatin], the IC50 [1] was 20 µM, the IC50 [2] was 4.23 µM and the IC50 [3] was 18.2 µM. The IC50 [4] was 14.5 µM, the IC50 [5] was 3.53 µM and the IC50 [6] was 2990 nM. For the same compound, the “Xenograph Sensitivity” value [7] was “RES”, the “Xenograph Sensitivity” value [8] was “RES” and the “Xenograph Sensitivity” value [9] was “RES”. For the same compound, the “Xenograph Sensitivity” value [10] was “SEN”, the IC50 [11] was 6.2 ± 0.03 µM and the IC50 [12] was 11.7 ± 1.63 µM. It also gave an IC50 [13] of 8.35 ± 0.01 µM, an IC50 [14] of 5.28 ± 0.04 µM and an IC50 [15] of 12.6 ± 1.17 µM.

In the case of Nc1ccn([C@@H]2O[C@H](CO)[C@@H](O)C2(F)F)c(=O)n1 [gemcitabine], the gemcitabine adducts ([16]; microdose 0.092 mg/kg gemcitabine alone or with carboplatin 0.375 mg/kg) is reported as 2.44±0.880 adducts per 10^8 nucleotides, the gemcitabine adduct level ([16]; therapeutic 9.2 mg/kg gemcitabine alone or with carboplatin 37.5 mg/kg) is reported as 169.2±9.129 adducts per 10^8 nucleotides and the gemcitabine-DNA adduct levels ([17]; control experiment FIG. 23F, microdose single agent or G/Carbo combination) is reported as 2.44±0.492 adducts per 10^8 nucleotides. It also gave a gemcitabine adduct levels ([17]; microdose 0.092 mg/kg gemcitabine, 24 h (FIG. 22B)) of 3.17±0.278, a gemcitabine adduct levels [18] of 10.0±5.92 and a gemcitabine adduct levels [19] of 13.1±10.2. For the same compound, the “Xenograph Sensitivity” value [7] was “RES”, the “Xenograph Sensitivity” value [8] was “SEN” and the “Xenograph Sensitivity” value [9] was “RES”. For the same compound, the “Xenograph Sensitivity” value [10] was “SEN”, the plasma concentration [20] was “about 30 μM” and the plasma half-life [20] was “about 60 minutes”. For the same compound, the “gemcitabine incorporation in 5637R compared to parental 5637 cells” value ([21]; 0.03 μM 4 hours, at 24 hours) was “much lower gemcitabine incorporation” and the “cytotoxicity of subtherapeutic dose” value ([21]; 0.03 μM for 4 hours) was “no cytotoxicity”.
